Experimental data reported in US20230167122A1, “PESTICIDALLY ACTIVE HETEROCYCLIC DERIVATIVES WITH SULFUR CONTAINING SUBSTITUENTS” (SYNGENTA CROP PROTECTION AG, priority 2020, published 2023).

Columns and labels:
Assay type in all cases: in vivo
[1] = system: Bemisia tabaci (Cotton White Fly); experiment: Example B1: Activity against Bemisia tabaci (cotton white fly), sprayed cotton leaf discs; details: foliar, 144 h, application rate of 200 ppm, adult white flies on cotton leaf discs, 6 days after incubation
Description: Example B1: Activity Against Bemisia tabaci (Cotton White Fly)
Cotton leaf discs were placed on agar in 24-well microtiter plates and sprayed with aqueous test solutions prepared from 10′000 ppm DMSO stock solutions. After drying the leaf discs were infested with adult white flies. The samples were checked for mortality 6 days after incubation.

[2] = system: Diabrotica balteata (Corn Root Worm); experiment: Example B2: Activity against Diabrotica balteata (corn root worm), sprayed maize sprouts; details: 96 h, application rate of 200 ppm, L2 larvae on maize sprouts, 4 days after infestation, read-out: effect in at least one of the two categories (mortality or growth inhibition)
Description: Example B2: Activity Against Diabrotica balteata (Corn Root Worm)
Maize sprouts placed onto an agar layer in 24-well microtiter plates were treated with aqueous test solutions prepared from 10′000 ppm DMSO stock solutions by spraying. After drying, the plates were infested with L2 larvae (6 to 10 per well). The samples were assessed for mortality and growth inhibition in comparison to untreated samples 4 days after infestation.

[3] = system: Euschistus heros (Neotropical Brown Stink Bug); experiment: Example B3: Activity against Euschistus heros (neotropical brown stink bug), sprayed soybean leaf; details: 120 h, application rate of 200 ppm, N-2 nymphs on soybean leaf, 5 days after infestation, read-out: effect in at least one of the two categories (mortality or growth inhibition)
Description: Example B3: Activity Against Euschistus heros (Neotropical Brown Stink Bug)
Soybean leaf on agar in 24-well microtiter plates were sprayed with aqueous test solutions prepared from 10′000 ppm DMSO stock solutions. After drying the leaf were infested with N-2 nymphs. The samples were assessed for mortality and growth inhibition in comparison to untreated samples 5 days after infestation.

[4] = system: Plutella xylostella (Diamond Back Moth); experiment: Example B5: Activity against Plutella xylostella (diamond back moth), eggs, artificial diet; details: 192 h, application rate of 200 ppm, 8 days after infestation, read-out: effect in at least one of the two categories (mortality or growth inhibition)
Description: Example B5: Activity Against Plutella xylostella (Diamond Back Moth)
24-well microtiter plates with artificial diet were treated with aqueous test solutions prepared from 10′000 ppm DMSO stock solutions by pipetting. After drying, Plutella eggs were pipetted through a plastic stencil onto a gel blotting paper and the plate was closed with it. The samples were assessed for mortality and growth inhibition in comparison to untreated samples 8 days after infestation.

[5] = system: Myzus persicae (Green Peach Aphid); experiment: Example B6: Activity against Myzus persicae (green peach aphid), sprayed sunflower leaf discs; details: foliar, 144 h, application rate of 200 ppm, aphid population of mixed ages on sunflower leaf discs, 6 days after infestation
Description: Example B6: Activity Against Myzus persicae (Green Peach Aphid)
(§1) Sunflower leaf discs were placed on agar in a 24-well microtiter plate and sprayed with aqueous test solutions prepared from 10′000 ppm DMSO stock solutions. After drying, the leaf discs were infested with an aphid population of mixed ages. The samples were assessed for mortality 6 days after infestation.

[6] = system: Spodoptera littoralis (Egyptian Cotton Leaf Worm); experiment: Example B9: Activity against Spodoptera littoralis (Egyptian cotton leaf worm), sprayed cotton leaf discs; details: foliar, 72 h, application rate of 200 ppm, L1 larvae on cotton leaf discs, 3 days after infestation
Description: Example B9: Activity Against Spodoptera littoralis (Egyptian Cotton Leaf Worm)
Cotton leaf discs were placed onto agar in 24-well microtiter plates and sprayed with aqueous test solutions prepared from 10′000 ppm DMSO stock solutions. After drying the leaf discs were infested with five L1 larvae. The samples were assessed for mortality, anti-feeding effect, and growth inhibition in comparison to untreated samples 3 days after infestation. Control of Spodoptera littoralis by a test sample is given when at least one of the categories mortality, anti-feedant effect, and growth inhibition is higher than the untreated sample.

[7] = system: Tetranychus urticae (Two-Spotted Spider Mite); experiment: Example B10: Activity against Tetranychus urticae (two-spotted spider mite), sprayed bean leaf discs; details: foliar, 192 h, application rate of 200 ppm, mixed population (mobile stages) on bean leaf discs, 8 days after infestation
Description: Example B10: Activity Against Tetranychus urticae (Two-Spotted Spider Mite)
Bean leaf discs on agar in 24-well microtiter plates were sprayed with aqueous test solutions prepared from 10′000 ppm DMSO stock solutions. After drying the leaf discs were infested with a mite population of mixed ages. The samples were assessed for mortality on mixed population (mobile stages) 8 days after infestation.

[8] = system: Nilaparvata lugens (Brown Plant Hopper); experiment: Example B11: Activity against Nilaparvata lugens (brown plant hopper), larvicide, feeding/contact; details: 168 h, application rate of 50 ppm, N3 nymphs on sprayed rice plants, 7 days after the treatment
Description: Example B11: Activity Against Nilaparvata lugens (Brown Plant Hopper) Larvicide, Feeding/Contact
Rice plants were treated with the diluted test solutions in a spray chamber. After drying plants were infested with ˜20 N3 nymphs. 7 days after the treatment samples were assessed for mortality and growth regulation.

[9] = system: Nilaparvata lugens (Brown Plant Hopper); experiment: Example B12: Activity against Nilaparvata lugens (brown plant hopper), larvicide, systemic into water; details: 168 h, application rate of 12.5 ppm, systemic into nutritive solution, rice plants, N3 nymphs, 7 days after infestation
Description: Example B12: Activity Against Nilaparvata lugens (Brown Plant Hopper) Larvicide, Systemic into Water
Rice plants cultivated in a nutritive solution were treated with the diluted test solutions into nourishing cultivation system. 1 day after application plants were infested with ˜20 N3 nymphs. 7 days after infestation samples were assessed for mortality and growth regulation.

[10] = system: Frankliniella occidentalis (Western Flower Thrips); experiment: Example B4: Activity against Frankliniella occidentalis (western flower thrips), sprayed sunflower leaf discs; details: foliar, 168 h, application rate of 200 ppm, population of mixed ages on sunflower leaf discs, 7 days after infestation
Description: Example B4: Activity Against Frankliniella occidentalis (Western Flower Thrips)
as §1, with “in” for “in a”, “plates” for “plate”, “[…]” for “10′000 ppm”, “drying” for “drying,”, “a Frankliniella” for “an aphid”, “7” for “6”

[11] = system: Plutella xylostella (Diamond Back Moth); experiment: Example B8: Activity against Plutella xylostella (diamond back moth), L2 larvae, artificial diet; details: 120 h, application rate of 200 ppm, 5 days after infestation, read-out: effect in at least one of the two categories (mortality or growth inhibition)
Description: Example B8: Activity Against Plutella xylostella (Diamond Back Moth)
24-well microtiter plates with artificial diet were treated with aqueous test solutions prepared from 10′000 ppm DMSO stock solutions by pipetting. After drying, the plates were infested with L2 larvae (10 to 15 per well). The samples were assessed for mortality and growth inhibition in comparison to untreated samples 5 days after infestation.

Cn1c(-c2ncc(OC(C)(C)C#N)cc2S(=O)(=O)CC2CC2)nc2cc(C(F)(F)F)nnc21 [Compound P1, 2-[[5-(cyclopropylmethylsulfonyl)-6-[7-methyl-3-(trifluoromethyl)imidazo[4,5-c]pyridazin-6-yl]-3-pyridyl]oxy]-2-methyl-propanenitrile]
≥ 80%: mortality at 200 ppm [1] | percent effect (mortality or growth inhibition) at 200 ppm [2] | percent effect (mortality or growth inhibition) at 200 ppm [3] | percent effect (mortality or growth inhibition) at 200 ppm [4] | mortality at 200 ppm [5] | percent control (mortality, anti-feedant effect or growth inhibition) at 200 ppm [6] | mortality at 200 ppm [7] | mortality at 50 ppm [8] | mortality at 12.5 ppm [9]

CCS(=O)(=O)c1cc(OC(C)(C)C#N)cnc1-c1nc2cc(C(F)(F)F)cnc2n1C [Compound P3, 2-[[5-ethylsulfonyl-6-[3-methyl-6-(trifluoromethyl)imidazo[4,5-b]pyridin-2-yl]-3-pyridyl]oxy]-2-methyl-propanenitrile]
≥ 80%: mortality at 200 ppm [1] | percent effect (mortality or growth inhibition) at 200 ppm [2] | percent effect (mortality or growth inhibition) at 200 ppm [3] | mortality at 200 ppm [10] | percent effect (mortality or growth inhibition) at 200 ppm [4] | mortality at 200 ppm [5] | percent control (mortality, anti-feedant effect or growth inhibition) at 200 ppm [6]

CCn1c(C(F)(F)F)cc2nc(-c3ncc(OC(C)(C)C#N)cc3S(=O)(=O)CC)n(C)c2c1=O [Compound P6, 2-[[6-[5-ethyl-3-methyl-4-oxo-6-(trifluoromethyl)imidazo[4,5-c]pyridin-2-yl]-5-ethylsulfonyl-3-pyridyl]oxy]-2-methyl-propanenitrile]
≥ 80%: mortality at 200 ppm [1] | percent effect (mortality or growth inhibition) at 200 ppm [2] | percent effect (mortality or growth inhibition) at 200 ppm [3] | mortality at 200 ppm [10] | mortality at 200 ppm [5] | percent effect (mortality or growth inhibition) at 200 ppm [11] | percent control (mortality, anti-feedant effect or growth inhibition) at 200 ppm [6]

CCS(=O)(=O)c1cc(OC(C)(C)C#N)cnc1-c1nc2cc(C(F)(F)F)n(C3CC3)c(=O)c2n1C [Compound P7, 2-[[6-[5-cyclopropyl-3-methyl-4-oxo-6-(trifluoromethyl)imidazo[4,5-c]pyridin-2-yl]-5-ethylsulfonyl-3-pyridyl]oxy]-2-methyl-propanenitrile]
≥ 80%: percent effect (mortality or growth inhibition) at 200 ppm [2] | percent effect (mortality or growth inhibition) at 200 ppm [3] | mortality at 200 ppm [10] | percent effect (mortality or growth inhibition) at 200 ppm [11] | percent control (mortality, anti-feedant effect or growth inhibition) at 200 ppm [6]

CCS(=O)(=O)c1cc(OC(C)(C)C#N)cnc1-c1cn2ccc(C(F)(F)F)cc2n1 [Compound P8, 2-[[5-ethylsulfonyl-6-[7-(trifluoromethyl)imidazo[1,2-a]pyridin-2-yl]-3-pyridyl]oxy]-2-methyl-propanenitrile]
≥ 80%: percent effect (mortality or growth inhibition) at 200 ppm [2] | percent effect (mortality or growth inhibition) at 200 ppm [3] | mortality at 200 ppm [10] | mortality at 200 ppm [5] | percent effect (mortality or growth inhibition) at 200 ppm [11] | percent control (mortality, anti-feedant effect or growth inhibition) at 200 ppm [6] | mortality at 200 ppm [7]

CCS(=O)(=O)c1cc(OC(C)(C)C#N)cnc1-c1cn2ncc(C(F)(F)F)cc2n1 [Compound P9, 2-[[5-ethylsulfonyl-6-[7-(trifluoromethyl)imidazo[1,2-b]pyridazin-2-yl]-3-pyridyl]oxy]-2-methyl-propanenitrile]
≥ 80%: mortality at 200 ppm [1] | percent effect (mortality or growth inhibition) at 200 ppm [2] | mortality at 200 ppm [10] | mortality at 200 ppm [5] | percent effect (mortality or growth inhibition) at 200 ppm [11] | percent control (mortality, anti-feedant effect or growth inhibition) at 200 ppm [6] | mortality at 50 ppm [8] | mortality at 12.5 ppm [9]

CCS(=O)(=O)c1cc(OC(C)(C)C#N)ccc1-n1cc2cnc(C(F)(F)F)cc2n1 [Compound P10, 2-[3-ethylsulfonyl-4-[6-(trifluoromethyl)pyrazolo[4,3-c]pyridin-2-yl]phenoxy]-2-methyl-propanenitrile]
≥ 80%: mortality at 200 ppm [1] | percent effect (mortality or growth inhibition) at 200 ppm [2] | percent effect (mortality or growth inhibition) at 200 ppm [3] | mortality at 200 ppm [10] | mortality at 200 ppm [5] | percent effect (mortality or growth inhibition) at 200 ppm [11] | percent control (mortality, anti-feedant effect or growth inhibition) at 200 ppm [6] | mortality at 200 ppm [7] | mortality at 50 ppm [8] | mortality at 12.5 ppm [9]

CCS(=O)(=O)c1cc(OC(C)(C)C#N)ccc1-c1nc2cc(C(F)(F)F)nnc2n1C [Compound P12, 2-[3-ethylsulfonyl-4-[7-methyl-3-(trifluoromethyl)imidazo[4,5-c]pyridazin-6-yl]phenoxy]-2-methyl-propanenitrile]
≥ 80%: mortality at 200 ppm [1] | percent effect (mortality or growth inhibition) at 200 ppm [2] | percent effect (mortality or growth inhibition) at 200 ppm [3] | mortality at 200 ppm [10] | mortality at 200 ppm [5] | percent effect (mortality or growth inhibition) at 200 ppm [11] | percent control (mortality, anti-feedant effect or growth inhibition) at 200 ppm [6]

CCS(=O)(=O)c1cc(OC(C)(C)C#N)cnc1-c1nc2cc(SC(F)(F)F)ccc2n1C [Compound P13, 2-[[5-ethylsulfonyl-6-[1-methyl-5-(trifluoromethylsulfanyl)benzimidazol-2-yl]-3-pyridyl]oxy]-2-methyl-propanenitrile]
≥ 80%: mortality at 200 ppm [1] | percent effect (mortality or growth inhibition) at 200 ppm [2] | percent effect (mortality or growth inhibition) at 200 ppm [3] | mortality at 200 ppm [10] | percent effect (mortality or growth inhibition) at 200 ppm [4] | mortality at 200 ppm [5] | percent control (mortality, anti-feedant effect or growth inhibition) at 200 ppm [6]

CCS(=O)(=O)c1cc(OC(C)(C)C#N)cnc1-c1nc2cc(S(=O)(=O)C(F)(F)F)ccc2n1C [Compound P14, 2-[[5-ethylsulfonyl-6-[1-methyl-5-(trifluoromethylsulfonyl)benzimidazol-2-yl]-3-pyridyl]oxy]-2-methyl-propanenitrile]
≥ 80%: mortality at 200 ppm [1] | percent effect (mortality or growth inhibition) at 200 ppm [2] | percent effect (mortality or growth inhibition) at 200 ppm [3] | mortality at 200 ppm [10] | percent effect (mortality or growth inhibition) at 200 ppm [4] | mortality at 200 ppm [5] | percent control (mortality, anti-feedant effect or growth inhibition) at 200 ppm [6]
